Patent US8110569B2, “Enantiomerically pure S-etifoxine, pharmaceutical compositions thereof and methods of their use” (The Regents of the University of California, priority 2006, dated 2012)

Tests used:
[1] = tested on: α1β1-3γ2L GABAA receptors; assay: Modulation of GABA-evoked currents in Xenopus oocytes (2-electrode voltage clamp), GABA subunit selectivity; format: cell-based; conditions: human GABAA receptor subunits expressed in Xenopus oocytes; for GABA subunit selectivity: GABA EC10 control currents, FIGS. 4A and 4B
Description: GABA subunit selectivity of etifoxine enantiomers was measured based on their ability to modulate the GABA-evoked currents in Xenopus oocytes.
Receptor mRNA preparation: cDNA clones encoding human GABAA receptor subunits were obtained from commercial sources. mRNA was prepared using conventional techniques with commercially-available “mMessage machine” kits (Ambion). Individual mRNAs (˜1 μg/μL) were stored in aliquots at −80° C.
mRNA injections into Xenopus oocytes: Preparation and micro-injection of oocytes were performed as reported in detail previously (see, Whittemore et al., 1996, Mol Pharmacol 50: 1364-1375). Individual oocytes were injected with 5-50 ng of mRNA at 5:1:1 (GABA). For example, individual oocytes were injected with a 5:1:1 mixture of α1, β1-3, and γ2L (˜5-50 ng of each subunit per cell) to produce expression of α1β1-3γ2L GABAA receptors. Following injections, oocytes were maintained at 16-17° C. in Barth's medium containing (in mM): NaCl, 88; KCl, 1; CaCl2, 0.41; Ca(NO3)2, 0.33; MgSO4, 0.82; NaHCO3, 2.4; HEPES 5; pH=7.4, with 0.1 mg/ml gentamycin sulfate.
Oocyte Electrophysiological recordings: Individual oocytes were placed on a nylon mesh in a 35 mm dish, perfused with frog Ringer (see, Whittemore et al., supra), and voltage clamped at a holding potential of −70 mV. In some cases, simple voltage steps were made to test voltage-dependence. Oocytes were perfused with fresh Ringer or exposed to GABA ±modulators using a custom-made gravity-driven perfusion system consisting of a linear array of 3 capillary tubes. The concentration of GABA used to evoke control currents was adjusted for each individual oocyte to be ˜10% of the maximal current (EC10) measured in that cell. The concentration of GABA required to evoke EC10 ‘control’ currents varied between ˜2 and 12 μM. […] Data are expressed as % of control currents (% modulation=100*[(modulated current/GABA control current)−1].

[2] = tested on: mouse formalin pain model; assay: Mouse formalin test, late phase licking (analgesic effect); format: in vivo; conditions: 3 mg/kg i.p., 30 minutes prior to formalin; male NSA mice; FIG. 5
Description: The analgesic effect of test compounds was assessed in a mouse formalin pain model (Hole et al., 1993, Pain 53:247-254). Male NSA mice weighing between 27 and 30 g were housed with access to food and water ad libitum until the test date. On the day of testing, they were given a period of 1 h to adjust to the test chamber. Test compounds or vehicle control (75% polyethylene glycol in 5% dextrose+water) were administered i.p. at 30 minutes prior to the administration of formalin. A solution of 20 μl of 2.5% formalin was then injected subcutaneously into the dorsal side of the hind paw of the test mouse. Immediately following formalin injection, the mice were observed over the next 50 min and the time spent licking the injected hind paw was recorded. The observation time was broken down into 5 minute “bins”, with 10 bins in total. The first 5-min bin is the early phase, considered to be reflective of acute pain. Bins three to ten make up the late phase, considered a measure of chronic inflammatory pain. The results for the late phase are expressed as the averaged mean time (in seconds) that mice spent licking in a 5-min period.
Dose-response relationship was conducted in the range of 3 to 60 mg/kg. Statistical differences in response were determined by one-way analysis of variance with the Dunnett's post-hoc test by using the Prism3 statistical software (GraphPad, Inc., San Diego, Calif.).

[3] = In vivo racemization study, plasma enantiomers by chiral LC-MS/MS; set-up: species or system mouse; conditions: 30 mg/kg perorally, NSA mice, plasma 30 minutes post dose; FIG. 6A
Description: Pure S-etifoxine was administered at 30 mg/kg, perorally, to NSA mice. The desired enantiomer was dissolved in PEG at a concentration of 15 mg/mL and a dose of 2 mL/kg was administered perorally to overnight fasted mice. Plasma concentration of etifoxine enantiomers was determined by LC-MS/MS analysis.
A mixture of 100 μL plasma and 200 μL water in a 6-mL plastic culture tube was vortexed briefly, for about 10 seconds. To this was added 1.5 mL methyl tert-butyl ether and 1.5 mL hexane and vortexed briefly for about 10 seconds. The mixture was centrifuged for about 10 minutes and frozen at −80° C. for 10 minutes. The organic layer was collected and dried under nitrogen at 37° C. The solid was resuspended in 250 μL methanol, vortexed and transferred to 96-well plate.
The samples were analyzed by LC-MS/MS on a […] CHIRALCEL® OD (lot #OD00CE-FJ033) column at room temperature. A mixture of 75% hexane, 25% isopropyl alcohol and 0.05% […] was used as an isocratic mobile phase. The flow rate was set at 1 mL/min at room temperature. Racemic etifoxine spiked into plasma was used as a reference standard. FIGS. 6A and 6B provide representative chromatograms of extracted plasma sample (pure S-etifoxine, dosed at 30 mg/kg/po at 30 minutes post dose) and racemic standard spiked into plasma (100 ng/mL), respectively. […]

SMILES	GABA subunit selectivity [1]	activity in the formalin test (late phase licking) [2]	selectivity between β2 and β1 subunit ([1]; FIG. 4B)	racemization in vivo (R-etifoxine in plasma) [3]
CCN=C1Nc2ccc(Cl)cc2[C@@](C)(c2ccccc2)O1 [R-etifoxine]	little or no GABA subunit selectivity	–	–	–
CCNC1=Nc2ccc(Cl)cc2C(C)(c2ccccc2)O1 (centres unmarked) [S-etifoxine]	shows selectivity for GABA receptor comprising β subunit	active	more selective for β2 subunit than β1 subunit	little or no racemization in vivo
